# Experimental data from patent US9204653B2, “5-fluoro pyrimidine derivatives” (DOW AGROSCIENCES LLC, priority 2008, dated 2015).
# Read-outs that look alike come from different tables or passages of the source.
# Test system: Mycosphaerella graminicola; Anamorph: Septoria tritici; Bayer Code SEPTTR
# Assay: Leaf blotch of wheat, foliar fungicide treatment, one day protectant (1DP) or three day curative (3DC)
# Type: in vivo, Septoria tritici on wheat plants (variety Yuma)
# Conditions: Zymoseptoria tritici; for pest or weed control at 50 ppm / pest or weed control at 200 ppm: % disease control rating
# [1] = 24 h, one day protectant, 25 ppm, rating of percent disease control, read-out: SETTTR 1DP 25 ppm
# [2] = 24 h, one day protectant, rating of percent disease control, read-out: SEPTTR 1DP 100 ppm
# [3] = 72 h, three day curative, 25 ppm, rating of percent disease control, read-out: SEPTTR 3DC 25 ppm
# [4] = 72 h, three day curative, rating of percent disease control, read-out: SEPTTR 3DC 100 ppm
# [5] = 24 h, one day protectant (1DP), 25 ppm, percent disease control rating, read-out: SETTTR 1DP 25 ppm
# [6] = 24 h, one day protectant (1DP), percent disease control rating, read-out: SEPTTR 1DP 100 ppm
# [7] = 72 h, three day curative (3DC), 25 ppm, percent disease control rating, read-out: SEPTTR 3DC 25 ppm
# [8] = 72 h, three day curative (3DC), percent disease control rating, read-out: SEPTTR 3DC 100 ppm
# [9] = 24 h, one day protectant (1DP), 25 ppm, rating of percent disease control, read-out: SETTTR 1DP 25 ppm
# [10] = 24 h, one day protectant (1DP), rating of percent disease control, read-out: SEPTTR 1DP 100 ppm
# [11] = 72 h, three day curative (3DC), 25 ppm, rating of percent disease control, read-out: SEPTTR 3DC 25 ppm
# [12] = 72 h, three day curative (3DC), rating of percent disease control, read-out: SEPTTR 3DC 100 ppm
# [13] = 24 h, one day protectant (1DP), 25 ppm (first 1DP column), percent control rating, read-out: SETTTR 1DP 25 ppm
# [14] = 24 h, one day protectant (1DP), 25 ppm as printed (second 1DP column), percent control rating, read-out: SETTTR 1DP 25 ppm
# [15] = 72 h, three day curative (3DC), 25 ppm, percent control rating, read-out: SEPTTR 3DC 25 ppm
# [16] = 72 h, three day curative (3DC), percent control rating, read-out: SEPTTR 3DC 100 ppm
smiles,measurement,setting,value
Nc1nc(OCc2cc3cccnc3s2)ncc1F [Compound 578],pest or weed control at 25 ppm,[1],76 to 100%
same,pest or weed control at 100 ppm,[2],76 to 100%
same,pest or weed control at 25 ppm,[3],76 to 100%
same,pest or weed control at 100 ppm,[4],76 to 100%
Fc1ccc(COc2ncc(F)c(NCC(F)(F)F)n2)cc1 [Compound 833],pest or weed control at 50 ppm,"24 h, one day protectant",26 to 50%
same,pest or weed control at 200 ppm,"24 h, one day protectant",51 to 75%
CCCNC(=O)Nc1nc(OCc2ccccc2OC)ncc1F [Compound 724],pest or weed control at 25 ppm,[1],0 to 25%
same,pest or weed control at 100 ppm,[2],26 to 50%
same,pest or weed control at 25 ppm,[3],0 to 25%
same,pest or weed control at 100 ppm,[4],0 to 25%
"O/N=C\Nc1nc(OCc2ccc(F)cc2)ncc1F [Compound 22, N-[5-Fluoro-2-(4-fluorobenzyloxy)pyrimidin-4-yl]-N′-hydroxy-formamidine]",pest or weed control at 25 ppm,[5],76 to 100%
same,pest or weed control at 100 ppm,[6],76 to 100%
same,pest or weed control at 25 ppm,[7],76 to 100%
same,pest or weed control at 100 ppm,[8],76 to 100%
Nc1nc(OCCOc2ccccc2)ncc1F [Compound 748],pest or weed control at 25 ppm,[9],0 to 25%
same,pest or weed control at 100 ppm,[10],0 to 25%
Cc1cc(C)nc(NNc2nc(OCc3ccccc3)ncc2F)n1 [Compound 470],pest or weed control at 25 ppm,[9],0 to 25%
same,pest or weed control at 100 ppm,[10],0 to 25%
same,pest or weed control at 25 ppm,[11],26 to 50%
same,pest or weed control at 100 ppm,[12],26 to 50%
CN(C)CCOc1ncc(F)c(N)n1 [Compound 545],pest or weed control at 25 ppm,[9],0 to 25%
same,pest or weed control at 100 ppm,[10],26 to 50%
same,pest or weed control at 25 ppm,[11],0 to 25%
same,pest or weed control at 100 ppm,[12],51 to 75%
CCOC(=O)COC(=O)Nc1nc(OCc2ccccc2)ncc1F [Compound 134],pest or weed control at 25 ppm,[5],0 to 25%
same,pest or weed control at 100 ppm,[6],51 to 75%
same,pest or weed control at 25 ppm,[7],51 to 75%
same,pest or weed control at 100 ppm,[8],76 to 100%
CCOCCOc1cccc(COc2ncc(F)c(NC(C)=O)n2)c1 [Compound 884],pest or weed control at 50 ppm,"24 h, one day protectant",76 to 100%
same,pest or weed control at 200 ppm,"24 h, one day protectant",76 to 100%
O=[N+]([O-])c1ccccc1SNc1nc(OCc2ccc3c(c2)OCO3)ncc1F [Compound 151],pest or weed control at 25 ppm,[5],0 to 25%
same,pest or weed control at 100 ppm,[6],0 to 25%
same,pest or weed control at 25 ppm,[7],26 to 50%
same,pest or weed control at 100 ppm,[8],26 to 50%
Fc1ccc(COc2ncc(F)c(NCc3ccc(Cl)nc3)n2)cc1 [Compound 901],pest or weed control at 50 ppm,"24 h, one day protectant",51 to 75%
same,pest or weed control at 200 ppm,"24 h, one day protectant",76 to 100%
Cc1ccc(COc2ncc(F)c(/N=N/c3cc(C)ccc3C)n2)cc1 [Compound 1089],pest or weed control at 25 ppm,[13],0 to 25%
same,pest or weed control at 25 ppm,[14],0 to 25%
same,pest or weed control at 25 ppm,[15],26 to 50%
same,pest or weed control at 100 ppm,[16],26 to 50%
Oc1ncc(F)c(NNc2ccccc2Cl)n1 [Compound 1098],pest or weed control at 25 ppm,[13],0 to 25%
same,pest or weed control at 25 ppm,[14],0 to 25%
same,pest or weed control at 25 ppm,[15],0 to 25%
same,pest or weed control at 100 ppm,[16],0 to 25%
Nc1nc(OCc2cccc3ccccc23)ncc1F [Compound 120],pest or weed control at 25 ppm,[5],76 to 100%
same,pest or weed control at 100 ppm,[6],76 to 100%
same,pest or weed control at 25 ppm,[7],76 to 100%
same,pest or weed control at 100 ppm,[8],76 to 100%
Fc1cnc(OC2CCCCC2)nc1NCc1ccc2c(c1)OCO2 [Compound 841],pest or weed control at 50 ppm,"24 h, one day protectant",51 to 75%
same,pest or weed control at 200 ppm,"24 h, one day protectant",76 to 100%
"CC(C)(C)C(=O)OCNc1nc(OCc2ccc(F)cc2)ncc1F [Compound 19, 2,2-Dimethylpropionic acid[5-fluoro-2-(4-fluorobenzyloxy)pyrimidin-4-ylamino]methyl ester]",pest or weed control at 25 ppm,[5],76 to 100%
same,pest or weed control at 100 ppm,[6],76 to 100%
same,pest or weed control at 25 ppm,[7],51 to 75%
same,pest or weed control at 100 ppm,[8],76 to 100%
O=C(Nc1nc(OCc2ccc(F)cc2)ncc1F)c1ccccc1 [Compound 364],pest or weed control at 25 ppm,[9],76 to 100%
same,pest or weed control at 100 ppm,[10],76 to 100%
same,pest or weed control at 25 ppm,[11],76 to 100%
same,pest or weed control at 100 ppm,[12],76 to 100%
Fc1cnc(OCC(F)(F)F)nc1NCc1ccc(Cl)cc1 [Compound 905],pest or weed control at 50 ppm,"24 h, one day protectant",26 to 50%
same,pest or weed control at 200 ppm,"24 h, one day protectant",51 to 75%
"COc1ccc(/C=N/Nc2nc(O)ncc2F)cc1 [Compound 960, (E)-5-Fluoro-4-(2-(4-methoxybenzylidene)hydrazinyl)pyrimidin-2(1H)-one]",pest or weed control at 25 ppm,[13],0 to 25%
same,pest or weed control at 25 ppm,[14],0 to 25%
same,pest or weed control at 25 ppm,[15],0 to 25%
same,pest or weed control at 100 ppm,[16],0 to 25%
CCCNC(=S)Nc1nc(OCc2cccs2)ncc1F [Compound 528],pest or weed control at 25 ppm,[9],76 to 100%
same,pest or weed control at 100 ppm,[10],76 to 100%
same,pest or weed control at 25 ppm,[11],0 to 25%
same,pest or weed control at 100 ppm,[12],51 to 75%
